Results: patent publication US20200199647A1, “ASSAY FOR SCREENING MODULATORS OF HOLOPHOSPHATASE ACTIVITY” (UNITED KINGDOM RESEARCH AND INNOVATION, priority 2017, published 2020)

Legend:
R15A [1] = target: T1, R15A (Homo sapiens, UniProt O75807); test: Binding of R15A to biotinylated compounds on Streptavidin beads and elution
T1 construct: PPP1R15A amino acids 325-636 (R15A); His6 (C); made in house; host or cells: E. coli BL21 pLysS
Description: Purified R15A protein was diluted to 1 μM in IP buffer (50 mM Tris [pH 7.4], 150 mM NaCl, 0.1% Tween20, 10% glycerol). 1 μM R15A, in 100 μl volume, was pre-cleared with 25 μl of Pierce Streptavidin Magnetic Beads (ThermoFisher) for 1 h at 4° C. with rotation at 20 rpm. […] Samples were incubated for 3 h at 4° C. with rotation at 20 rpm. The supernatant was removed, and samples were thoroughly washed and transferred to a fresh Eppendorf. The beads were washed thoroughly with 5×1 ml interaction buffer, with 30 min incubation each time, and then resuspended with 50 μl of 4% SDS Laemmli sample buffer. Samples were run on 4-12% NuPAGE Bis-Tris gels (Life Technologies), and analysed by immunoblotting using α-MBP HRP (E8038) (NEB) (to reveal R15A). […] Samples were incubated for 10 min at 4° C. with 20 rpm rotation. 30 μl of supernatant was added to 10 μl of 16% SDS Laemmli sample buffer. 10 μl sample was run on 4-12% NuPAGE Bis-Tris gel (Life Technologies), and analysed by immunoblotting using α-MBP HRP (E8038) (NEB) (to reveal R15A).

R15A [2] = target: T1, R15A; test: Light scattering to monitor aggregation of R15A; details: 1 mM compound, 5 μM R15A, 10 min, 20° C.
Description: Samples were incubated for 10 min at RT. […] Therefore, light scattering was measured at 380 nm emission, 380 nm absorption to monitor the presence of aggregates. For each sample, 100 data points were collected over a period of 10 min, at 20° C., with constant stirring.

HeLa cells = test: Cytoprotection of HeLa cells from Tunicamycin (ER) stress; format: cell-based; details: 250 ng/ml Tunicamycin, 72 h
Description: HeLa cells (40,000 cells/ml) were plated in a 96-well plate and treated with different concentrations of compound, as indicated, or DMSO vehicle in the presence of 250 ng/ml Tunicamycin for 72 h. To monitor cell death, 1/2000 dilution of the CellTox green dye (Promega) was added to the media. The growth of the cells was monitored over time and pictures taken every 2 h with the IncuCyte ZOOM system and analysed by the IncuCyte ZOOM software (Essen BioScience). To compare different compounds and their cytoprotective effect, a growth ratio for each time point was calculated:
Growth ratio=(Phase confluency (%) at X hours)/(Phase confluency (%) at 0 hours)
The end point of the assay (72 h) was chosen for generating the graphs.

[3] = target: T2, PP1 (1 μM) in the presence of R15A (Homo sapiens, UniProt O75807); test: In vitro dephosphorylation of P-eIF2α using stoichiometric PP1c (1 μM) with R15A; format: biochemical; details: 1 μM PP1c, 1 μM P-eIF2α, 30° C., 16 h; compounds 100 μM
T2 construct: PPP1R15A amino acids 325-636 (R15A); His6 (C); made in house; host or cells: E. coli BL21 pLysS (R15A, eIF2α); E. coli BL21/pGro7 (PP1c)
Description: (§1) PP1c was diluted to the appropriate concentration (as indicated in the figure legends) in dephosphorylation buffer immediately prior to use. Dephosphorylation reactions were carried out by pre-incubating diluted PP1c in the presence or absence of regulatory subunits (either […]), and/or compounds (all at 100 μM, except for Salubrinal which was used at 30 μM), for 15′ at RT. All compounds were diluted in DMSO, and DMSO vehicle was used in all control experiments.
The reaction was initiated by the addition of 1 μM P-eIF2α or ^33P Phosphorylase a substrates and then incubated at 30° C. for 16 h with shaking at 350 rpm. Reactions were stopped by addition of 4× Laemmli sample buffer. eIF2α samples were analyzed by immunoblotting or Phos-tag gels. […] Samples in FIG. 8 and FIG. 16 were run on a 15% SuperSep Phos-tag acrylamide gel (Alpha Laboratories) and visualized by staining with InstantBlue Protein Stain.

[4] = target: T3, PP1 (1 μM) in the presence of R15B (Homo sapiens, UniProt Q5SWA1); test: In vitro dephosphorylation of P-eIF2α using stoichiometric PP1c (1 μM) with R15B; format: biochemical; details: 1 μM PP1c, 1 μM P-eIF2α, 30° C., 16 h; compound 100 μM
T3 construct: PPP1R15B amino acids 340-698 (R15B); His6 (C); made in house; host or cells: E. coli BL21 pLysS (R15B, eIF2α); E. coli BL21/pGro7 (PP1c)
Description: as §1
The reaction was initiated by the addition of 1 μM P-eIF2α or ^33P Phosphorylase a substrates and then incubated at 30° C. for 16 h with shaking at 350 rpm. Reactions were stopped by addition of 4× Laemmli sample buffer. eIF2α samples were analyzed by immunoblotting or Phos-tag gels. P-eIF2α dephosphorylation was analysed by immunoblotting using anti-Phospho-eIF2α (SerS1) (#9721) (Cell Signaling) and anti-eIF2α (ab26197) (AbCam) antibodies. Samples in FIG. 8 and FIG. 16 were run on a 15% SuperSep Phos-tag acrylamide gel (Alpha Laboratories) and visualized by staining with InstantBlue Protein Stain.
As previously reported (Connor et al., 2001), in vitro PP1c alone (1 μM) dephosphorylated eIF2α, and in vitro co-incubation with R15A had no effect in this assay (FIG. 1A). […]

T1 sequence (O75807 325-636, stated change not applied): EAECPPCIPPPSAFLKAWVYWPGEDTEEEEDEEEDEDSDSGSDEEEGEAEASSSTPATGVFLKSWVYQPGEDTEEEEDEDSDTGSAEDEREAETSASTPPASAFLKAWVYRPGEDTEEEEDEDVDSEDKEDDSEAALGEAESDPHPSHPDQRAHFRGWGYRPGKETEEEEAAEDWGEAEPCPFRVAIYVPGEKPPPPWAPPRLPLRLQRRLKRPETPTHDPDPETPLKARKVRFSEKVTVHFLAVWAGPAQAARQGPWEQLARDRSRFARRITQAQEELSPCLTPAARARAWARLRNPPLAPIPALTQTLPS
T2 sequence (O75807 325-636, stated change not applied): as above
T2 sequence (P62136 7-330 partner): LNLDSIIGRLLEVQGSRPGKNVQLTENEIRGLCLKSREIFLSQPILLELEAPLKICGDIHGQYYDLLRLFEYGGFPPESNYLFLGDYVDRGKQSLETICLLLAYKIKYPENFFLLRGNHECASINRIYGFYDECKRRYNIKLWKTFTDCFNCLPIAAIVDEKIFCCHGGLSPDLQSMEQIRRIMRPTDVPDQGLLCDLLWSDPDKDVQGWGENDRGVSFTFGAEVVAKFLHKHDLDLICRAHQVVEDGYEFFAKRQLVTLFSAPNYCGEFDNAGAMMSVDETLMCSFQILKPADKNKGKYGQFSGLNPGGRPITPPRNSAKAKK
T3 sequence (Q5SWA1 340-698): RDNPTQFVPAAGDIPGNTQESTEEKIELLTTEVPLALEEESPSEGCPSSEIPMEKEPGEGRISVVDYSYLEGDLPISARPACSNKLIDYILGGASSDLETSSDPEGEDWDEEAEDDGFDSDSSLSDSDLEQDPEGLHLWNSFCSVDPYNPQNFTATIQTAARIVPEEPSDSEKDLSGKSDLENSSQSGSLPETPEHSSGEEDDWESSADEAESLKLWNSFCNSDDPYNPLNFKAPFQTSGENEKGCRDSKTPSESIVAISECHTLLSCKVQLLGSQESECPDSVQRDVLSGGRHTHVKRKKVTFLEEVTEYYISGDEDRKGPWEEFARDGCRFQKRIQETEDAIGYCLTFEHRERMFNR
T3 sequence (P62136 7-330 partner limits assumed): as the sequence (P62136 7-330 partner) above

| Structure (SMILES) | binding to R15A (R15A [1]; 0.5 mM biotinylated compound on Streptavidin beads, 1 μM R15A) | nature of binding to R15A (elution with excess compound) (R15A [1]; elution with 2 mM free compound) | aggregation of R15A (light scattering at 380 nm) (R15A [2]) | cytoprotection from ER stress (HeLa cells) | effect on dephosphorylation of eIF2α by PP1c with R15A [3] | effect on dephosphorylation of eIF2α by PP1c with R15B [4] |
| --- | --- | --- | --- | --- | --- | --- |
| N=C(N)N/N=C/c1c(Cl)cccc1Cl [Guanabenz] | directly bind R15A | not covalent | No aggregation | Dose dependent cytoprotection | neither the selective R15A inhibitors, Guanabenz and Sephin1, nor the selective inhibitor of R15B, Raphin1, had any measurable effects |  |
| NC(N)=N/N=C/c1cccc(Cl)c1Cl [Raphin1] |  |  |  |  |  | nor the selective inhibitor of R15B, Raphin1, had any measurable effects |
